Assay results taken from publication PMC6195846 (Molecular microbiology, 2018).

Tests used:
[1] = target: T1, RsBluE (Cereibacter sphaeroides, UniProt Q3IZR9); assay: ADP-Glo ATPase assay; assay type: biochemical; settings: ATPase inhibition by product; ADP 20 mM; sarkosyl-solubilized enzyme; 25 C
[2] = target: T1, RsBluE; assay: ADP-Glo ATPase assay; assay type: biochemical; settings: ATPase inhibition; sodium pyrophosphate 10 mM; sarkosyl-solubilized enzyme; 25 C

Q: `Nc1ncnc2c1ncn2[C@@H]1O[C@H](COP(=O)(O)OP(=O)(O)O)[C@@H](O)[C@H]1O` [ADP] was tested. Which “% decrease in activity at 20 mM” value [1] did it give?
A: 52%

Q: Which “% decrease in activity at 10 mM” value [2] does the source give for `O=P(O)(O)OP(=O)(O)O` [PPi] here?
A: 12%
